Results reported in patent US12421232B2, “Kinase inhibitor compounds and compositions and methods of use” (ICAHN SCHOOL OF MEDICINE AT MOUNT SINAI, priority 2018, dated 2025).
Where two headings read alike, the source gives them in different places.

What was measured:
Test in all cases: KINOMEscan Assay (DiscoverX)
Format in all cases: binding
MEK2 = molecular target: T1, MEK2 (Homo sapiens, UniProt P36507); conditions: read-out: % DMSO Ctrl
T1 construct: purchased DiscoverX

PDGFRA = molecular target: T2, PDGFRA (Homo sapiens, UniProt P16234); conditions: read-out: % DMSO Ctrl
T2 construct: purchased DiscoverX

CAMK2A = molecular target: T3, CAMK2A (Homo sapiens, UniProt Q9UQM7); conditions: read-out: % DMSO Ctrl
T3 construct: purchased DiscoverX

PDGFRB = molecular target: T4, PDGFRB (Homo sapiens, UniProt P09619); conditions: read-out: % DMSO Ctrl
T4 construct: purchased DiscoverX

LRRK2(G2019S) = molecular target: T5, LRRK2(G2019S) (Homo sapiens, UniProt Q5S007, G2019S); conditions: read-out: % DMSO Ctrl
T5 construct: purchased DiscoverX

ROCK1 = molecular target: T6, ROCK1 (Homo sapiens, UniProt Q13464); conditions: read-out: % DMSO Ctrl
T6 construct: purchased DiscoverX

KIT = molecular target: T7, KIT (Homo sapiens, UniProt P10721); conditions: read-out: % DMSO Ctrl
T7 construct: purchased DiscoverX

FLT3(ITD) = FLT3(ITD) mutant; 10 μM
KIT(V559D,V654A) = molecular target: T8, KIT(V559D,V654A) (Homo sapiens, UniProt P10721, V559D/V654A); conditions: read-out: % DMSO Ctrl
T8 construct: purchased DiscoverX

FLT3-autoinhibited = molecular target: T9, FLT3-autoinhibited (Homo sapiens, UniProt P36888); conditions: read-out: % DMSO Ctrl
T9 construct: purchased DiscoverX
T9 sequence (P36888 564-993 limits assumed): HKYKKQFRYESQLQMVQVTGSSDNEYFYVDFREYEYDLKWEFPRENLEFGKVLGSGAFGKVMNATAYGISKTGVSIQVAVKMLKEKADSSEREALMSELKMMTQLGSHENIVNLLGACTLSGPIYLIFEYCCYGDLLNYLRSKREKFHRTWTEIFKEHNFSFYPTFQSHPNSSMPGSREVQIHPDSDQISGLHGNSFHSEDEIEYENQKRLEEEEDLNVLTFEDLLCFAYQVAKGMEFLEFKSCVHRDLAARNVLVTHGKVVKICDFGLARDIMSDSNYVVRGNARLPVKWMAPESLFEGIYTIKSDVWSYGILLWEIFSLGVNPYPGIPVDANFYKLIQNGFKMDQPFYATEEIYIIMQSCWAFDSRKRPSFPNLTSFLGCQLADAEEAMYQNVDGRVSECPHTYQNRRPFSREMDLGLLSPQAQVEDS

[1] = molecular target: T10, RPS6KA4(Kin.Dom.2-C-terminal) (Homo sapiens, UniProt O75676); conditions: read-out: % DMSO Ctrl
T10 construct: Kin.Dom.2; purchased DiscoverX

PIM1 = molecular target: T11, PIM1 (Homo sapiens, UniProt P11309); conditions: read-out: % DMSO Ctrl
T11 construct: purchased DiscoverX

IRAK1 = molecular target: T12, IRAK1 (Homo sapiens, UniProt P51617); conditions: read-out: % DMSO Ctrl
T12 construct: purchased DiscoverX

CSNK1G2 = molecular target: T13, CSNK1G2 (Homo sapiens, UniProt P78368); conditions: read-out: % DMSO Ctrl
T13 construct: purchased DiscoverX

HIPK2 = molecular target: T14, HIPK2 (Homo sapiens, UniProt Q9H2X6); conditions: read-out: % DMSO Ctrl
T14 construct: purchased DiscoverX

HASPIN = molecular target: T15, HASPIN (Homo sapiens, UniProt Q8TF76); conditions: read-out: % DMSO Ctrl
T15 construct: purchased DiscoverX
T15 sequence (Q8TF76 1-798): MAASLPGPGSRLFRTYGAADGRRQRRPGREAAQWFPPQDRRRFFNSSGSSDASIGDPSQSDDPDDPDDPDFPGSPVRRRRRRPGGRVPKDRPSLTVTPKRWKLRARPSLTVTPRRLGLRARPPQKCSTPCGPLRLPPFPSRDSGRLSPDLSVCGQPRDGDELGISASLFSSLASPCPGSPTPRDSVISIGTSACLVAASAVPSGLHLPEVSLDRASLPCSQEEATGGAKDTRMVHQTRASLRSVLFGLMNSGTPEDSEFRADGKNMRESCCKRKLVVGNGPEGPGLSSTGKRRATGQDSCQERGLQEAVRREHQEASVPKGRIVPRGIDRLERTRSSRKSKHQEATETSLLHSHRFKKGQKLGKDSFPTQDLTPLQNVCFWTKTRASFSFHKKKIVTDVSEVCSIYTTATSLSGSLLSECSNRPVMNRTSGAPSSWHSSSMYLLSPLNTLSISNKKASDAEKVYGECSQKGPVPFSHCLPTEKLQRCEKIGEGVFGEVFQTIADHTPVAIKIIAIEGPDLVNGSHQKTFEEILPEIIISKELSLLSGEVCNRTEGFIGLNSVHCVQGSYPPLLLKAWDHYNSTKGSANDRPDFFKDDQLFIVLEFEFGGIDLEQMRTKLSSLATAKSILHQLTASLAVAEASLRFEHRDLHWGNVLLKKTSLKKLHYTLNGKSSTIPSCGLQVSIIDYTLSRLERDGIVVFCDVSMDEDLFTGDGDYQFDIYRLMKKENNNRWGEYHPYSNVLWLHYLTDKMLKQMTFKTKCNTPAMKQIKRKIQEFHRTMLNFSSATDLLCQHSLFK

HIPK3 = molecular target: T16, HIPK3 (Homo sapiens, UniProt Q9H422); conditions: read-out: % DMSO Ctrl
T16 construct: purchased DiscoverX

T13 sequence (P78368 whole entry): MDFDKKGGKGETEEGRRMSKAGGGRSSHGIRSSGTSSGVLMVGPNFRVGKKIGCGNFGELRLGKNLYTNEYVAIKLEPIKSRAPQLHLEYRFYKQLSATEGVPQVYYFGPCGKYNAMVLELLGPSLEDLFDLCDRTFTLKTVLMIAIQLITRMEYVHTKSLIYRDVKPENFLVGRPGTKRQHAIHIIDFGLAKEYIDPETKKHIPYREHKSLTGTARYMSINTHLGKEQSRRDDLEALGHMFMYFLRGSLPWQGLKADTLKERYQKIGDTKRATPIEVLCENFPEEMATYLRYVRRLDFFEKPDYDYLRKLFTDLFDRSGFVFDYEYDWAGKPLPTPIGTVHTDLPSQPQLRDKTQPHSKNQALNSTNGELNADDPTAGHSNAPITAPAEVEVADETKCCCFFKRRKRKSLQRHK
T7 sequence (P10721 26-976): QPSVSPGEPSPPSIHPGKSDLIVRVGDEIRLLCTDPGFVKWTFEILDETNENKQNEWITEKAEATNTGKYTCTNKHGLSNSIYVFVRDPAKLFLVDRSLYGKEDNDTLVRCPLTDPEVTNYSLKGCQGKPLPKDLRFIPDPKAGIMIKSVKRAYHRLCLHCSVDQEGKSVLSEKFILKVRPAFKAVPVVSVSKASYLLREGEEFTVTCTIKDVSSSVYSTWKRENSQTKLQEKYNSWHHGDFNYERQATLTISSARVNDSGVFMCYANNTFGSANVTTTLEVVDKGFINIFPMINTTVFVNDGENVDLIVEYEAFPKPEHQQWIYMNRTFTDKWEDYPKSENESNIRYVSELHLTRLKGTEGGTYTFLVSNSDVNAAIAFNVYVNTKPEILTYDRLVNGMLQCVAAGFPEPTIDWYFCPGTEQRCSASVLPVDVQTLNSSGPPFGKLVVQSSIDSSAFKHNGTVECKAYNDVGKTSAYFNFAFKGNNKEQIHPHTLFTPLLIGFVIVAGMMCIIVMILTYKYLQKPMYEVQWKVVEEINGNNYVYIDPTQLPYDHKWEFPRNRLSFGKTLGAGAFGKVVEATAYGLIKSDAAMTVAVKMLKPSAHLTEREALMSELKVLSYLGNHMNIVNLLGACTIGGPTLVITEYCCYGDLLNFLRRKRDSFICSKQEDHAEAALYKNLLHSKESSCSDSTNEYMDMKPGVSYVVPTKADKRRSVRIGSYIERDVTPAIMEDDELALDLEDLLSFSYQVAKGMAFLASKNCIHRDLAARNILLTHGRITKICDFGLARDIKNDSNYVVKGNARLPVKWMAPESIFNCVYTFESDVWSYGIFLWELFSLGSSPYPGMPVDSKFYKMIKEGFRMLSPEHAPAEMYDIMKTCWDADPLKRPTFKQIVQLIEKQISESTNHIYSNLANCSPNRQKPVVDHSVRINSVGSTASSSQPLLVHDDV
T8 sequence (P10721 26-976 V559D/V654A): as the sequence (P10721 26-976) above, with V534D, V629A counted along it
T11 sequence (P11309 whole entry): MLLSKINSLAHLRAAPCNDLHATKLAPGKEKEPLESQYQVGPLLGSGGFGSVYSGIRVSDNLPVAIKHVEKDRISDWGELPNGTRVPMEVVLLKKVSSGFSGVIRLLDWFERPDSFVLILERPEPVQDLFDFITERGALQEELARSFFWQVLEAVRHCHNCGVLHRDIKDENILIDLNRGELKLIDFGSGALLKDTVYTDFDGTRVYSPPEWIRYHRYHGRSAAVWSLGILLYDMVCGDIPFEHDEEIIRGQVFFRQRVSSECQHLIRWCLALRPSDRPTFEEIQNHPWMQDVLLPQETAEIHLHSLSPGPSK
T6 sequence (Q13464 whole entry): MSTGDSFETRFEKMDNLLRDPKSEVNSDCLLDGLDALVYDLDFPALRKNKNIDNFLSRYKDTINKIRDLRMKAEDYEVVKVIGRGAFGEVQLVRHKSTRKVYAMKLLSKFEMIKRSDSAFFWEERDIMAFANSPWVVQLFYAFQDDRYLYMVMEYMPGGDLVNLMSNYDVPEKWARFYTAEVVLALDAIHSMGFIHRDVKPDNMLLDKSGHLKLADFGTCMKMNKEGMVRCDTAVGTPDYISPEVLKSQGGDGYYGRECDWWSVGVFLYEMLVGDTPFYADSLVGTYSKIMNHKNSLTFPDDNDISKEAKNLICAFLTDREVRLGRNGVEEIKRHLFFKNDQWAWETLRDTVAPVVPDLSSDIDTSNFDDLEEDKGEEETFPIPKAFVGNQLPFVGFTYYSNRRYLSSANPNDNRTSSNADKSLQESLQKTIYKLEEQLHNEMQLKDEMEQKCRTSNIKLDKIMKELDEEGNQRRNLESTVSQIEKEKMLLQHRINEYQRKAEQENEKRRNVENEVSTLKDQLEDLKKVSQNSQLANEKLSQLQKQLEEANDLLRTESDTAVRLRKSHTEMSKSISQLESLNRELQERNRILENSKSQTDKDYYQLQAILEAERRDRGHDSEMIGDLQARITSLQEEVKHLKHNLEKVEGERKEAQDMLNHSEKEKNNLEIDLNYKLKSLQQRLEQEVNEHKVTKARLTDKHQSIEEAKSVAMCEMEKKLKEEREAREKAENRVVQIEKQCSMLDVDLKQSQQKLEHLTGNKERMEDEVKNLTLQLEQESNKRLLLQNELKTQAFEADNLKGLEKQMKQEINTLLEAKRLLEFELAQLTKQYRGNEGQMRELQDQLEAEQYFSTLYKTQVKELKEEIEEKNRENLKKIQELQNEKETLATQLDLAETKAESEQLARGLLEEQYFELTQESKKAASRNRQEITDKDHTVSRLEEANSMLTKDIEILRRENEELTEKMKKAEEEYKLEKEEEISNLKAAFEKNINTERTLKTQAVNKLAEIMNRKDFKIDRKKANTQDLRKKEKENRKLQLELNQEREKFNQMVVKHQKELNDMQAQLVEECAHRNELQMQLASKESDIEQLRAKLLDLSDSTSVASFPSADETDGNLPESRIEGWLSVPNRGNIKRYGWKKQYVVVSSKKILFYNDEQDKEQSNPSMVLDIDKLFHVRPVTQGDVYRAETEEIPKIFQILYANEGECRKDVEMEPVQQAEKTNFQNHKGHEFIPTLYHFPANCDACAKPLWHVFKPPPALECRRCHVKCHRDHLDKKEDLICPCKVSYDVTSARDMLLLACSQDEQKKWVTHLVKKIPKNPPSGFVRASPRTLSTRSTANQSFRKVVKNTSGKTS
T4 sequence (P09619 33-1106): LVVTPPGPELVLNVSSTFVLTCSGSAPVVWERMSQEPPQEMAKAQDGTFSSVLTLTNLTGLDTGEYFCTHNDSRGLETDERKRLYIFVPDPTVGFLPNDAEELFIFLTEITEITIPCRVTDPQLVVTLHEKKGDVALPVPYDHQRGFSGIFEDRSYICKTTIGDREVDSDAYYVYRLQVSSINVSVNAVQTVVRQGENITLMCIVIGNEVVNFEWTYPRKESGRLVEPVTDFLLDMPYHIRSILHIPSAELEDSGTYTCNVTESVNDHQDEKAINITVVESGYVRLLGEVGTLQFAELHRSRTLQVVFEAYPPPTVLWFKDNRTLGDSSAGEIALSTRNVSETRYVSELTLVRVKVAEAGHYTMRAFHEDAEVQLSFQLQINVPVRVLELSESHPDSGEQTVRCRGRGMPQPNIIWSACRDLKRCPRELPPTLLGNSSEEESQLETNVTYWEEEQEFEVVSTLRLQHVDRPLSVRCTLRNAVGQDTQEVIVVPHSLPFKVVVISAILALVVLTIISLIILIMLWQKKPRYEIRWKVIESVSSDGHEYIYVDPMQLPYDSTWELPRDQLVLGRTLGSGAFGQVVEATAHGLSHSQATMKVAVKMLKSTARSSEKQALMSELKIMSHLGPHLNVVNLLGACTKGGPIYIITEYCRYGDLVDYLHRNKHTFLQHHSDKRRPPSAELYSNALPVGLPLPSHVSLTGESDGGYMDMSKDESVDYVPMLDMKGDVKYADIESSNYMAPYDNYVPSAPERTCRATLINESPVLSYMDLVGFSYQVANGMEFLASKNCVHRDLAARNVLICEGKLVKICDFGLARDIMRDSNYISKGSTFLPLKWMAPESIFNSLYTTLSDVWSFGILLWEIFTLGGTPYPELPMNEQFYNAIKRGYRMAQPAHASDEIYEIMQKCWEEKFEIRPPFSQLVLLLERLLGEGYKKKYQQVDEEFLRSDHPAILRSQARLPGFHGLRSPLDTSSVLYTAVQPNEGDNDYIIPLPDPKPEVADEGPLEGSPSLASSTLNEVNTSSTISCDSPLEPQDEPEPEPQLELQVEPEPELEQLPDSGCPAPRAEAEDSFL
T1 sequence (P36507 whole entry): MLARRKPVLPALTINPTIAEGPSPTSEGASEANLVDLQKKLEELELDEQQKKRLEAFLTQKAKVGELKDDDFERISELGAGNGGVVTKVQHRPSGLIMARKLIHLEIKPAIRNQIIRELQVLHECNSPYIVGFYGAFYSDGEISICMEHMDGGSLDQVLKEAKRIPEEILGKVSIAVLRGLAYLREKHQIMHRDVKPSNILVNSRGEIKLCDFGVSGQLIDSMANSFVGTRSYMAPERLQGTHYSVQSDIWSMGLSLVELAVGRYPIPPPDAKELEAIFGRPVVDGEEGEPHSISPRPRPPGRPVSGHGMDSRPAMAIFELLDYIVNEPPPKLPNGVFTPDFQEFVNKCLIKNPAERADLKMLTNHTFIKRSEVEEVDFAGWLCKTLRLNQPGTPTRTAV
T10 sequence (O75676 411-674 limits assumed): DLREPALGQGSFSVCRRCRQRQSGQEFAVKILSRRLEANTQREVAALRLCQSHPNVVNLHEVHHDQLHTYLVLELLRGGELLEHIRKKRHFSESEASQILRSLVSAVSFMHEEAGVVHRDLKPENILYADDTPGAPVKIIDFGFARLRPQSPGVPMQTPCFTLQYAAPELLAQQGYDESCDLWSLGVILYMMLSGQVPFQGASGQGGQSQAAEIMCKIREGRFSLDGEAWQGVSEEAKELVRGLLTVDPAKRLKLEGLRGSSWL

SMILES | remaining binding at 10 µM (ROCK1; ROCK1, 10 μM) [%] | % DMSO Ctrl (FLT3(ITD)) [% DMSO Ctrl] | remaining binding at 10 µM (PIM1) [%] | remaining binding at 10 µM (MEK2) [%] | remaining binding at 10 µM (IRAK1) [%] | remaining binding at 10 µM (CSNK1G2) [%] | remaining binding at 10 µM (PDGFRA) [%] | remaining binding at 10 µM (CAMK2A) [%] | remaining binding at 10 µM (PDGFRB) [%] | remaining binding at 10 µM (HIPK2) [%] | remaining binding at 10 µM (HASPIN) [%] | remaining binding at 10 µM (LRRK2(G2019S)) [%] | remaining binding at 10 µM (ROCK1) [%] | remaining binding at 10 µM (KIT) [%] | remaining binding at 10 µM (KIT(V559D,V654A)) [%] | remaining binding at 10 µM (FLT3-autoinhibited) [%] | remaining binding at 10 µM (HIPK3) [%] | remaining binding at 10 µM [1] [%] | further results
COc1ccc2c(c1)[nH]c1c(C)nc(CO)cc12 [Compound 2-8, (1-Methyl-7-methoxy-9H-pyrido[3,4-b]indol-3-yl)methanol] | 33 | 87 | – | – | – | – | – | – | – | – | – | – | – | – | – | – | – | – | remaining binding at 10 µM (MEK2; MEK2, 10 μM): 100%; remaining binding at 10 µM (PDGFRA; PDGFRA, 10 μM): 100%; remaining binding at 10 µM (CAMK2A; CAMK2A, 10 μM): 53%; remaining binding at 10 µM (PDGFRB; PDGFRB, 10 μM): 97%; remaining binding at 10 µM (LRRK2(G2019S); LRRK2(G2019S) mutant, 10 μM): 98%; remaining binding at 10 µM (KIT; KIT, 10 μM): 98%; remaining binding at 10 µM (KIT(V559D,V654A); KIT(V559D,V654A) mutant, 10 μM): 100%; remaining binding at 10 µM (FLT3-autoinhibited; FLT3-autoinhibited, 10 μM): 100%; remaining binding at 10 µM ([1]; RPS6KA4(Kin.Dom.2-C-terminal), 10 μM): 1%
COc1ccc2c3ccnc(C)c3n(CCCc3noc(N)n3)c2c1 [Compound 20-13, 3-(3-(7-Methoxy-1-methyl-β-carbolin-9-yl)propyl)-5-amino-1,2,4-oxadiazole] | – | 72 | 28 | 0 | 58 | 91 | 83 | 72 | 100 | 2.3 | 0.35 | 5.1 | 24 | 100 | 98 | 85 | 6.2 | 85 | –
C#CCn1c2cc(OC)ccc2c2ccnc(C)c21 [Compound 20-23a, 3-(7-Methoxy-1-methyl-β-carbolin-9-yl)-propan-1-yne] | 9.2 | 61 | – | 96 | – | – | 100 | 13 | 77 | – | 1.7 | 100 | – | 83 | 100 | 100 | – | 55 | remaining binding at 10 µM (PIM1; PIM1, 10 μM): 26%; remaining binding at 10 µM (IRAK1; IRAK1, 10 μM): 42%; remaining binding at 10 µM (CSNK1G2; CSNK1G2, 10 μM): 56%; remaining binding at 10 µM (HIPK2; HIPK2, 10 μM): 71%; remaining binding at 10 µM (HIPK3; HIPK3, 10 μM): 4.5%
COc1ccc2c(c1)[nH]c1c(C)nccc12 [Harmine, reference compound] | – | – | 45 | – | 17 | 19 | – | – | – | 8.6 | 2 | – | 26 | – | – | – | 9.4 | – | –
